Read-outs that look alike come from different tables or passages of the source. Square brackets hold non-standard residues; d marks the D form. Primed or numbered codes have the meaning given here. Ends that are not written are not given here. Peptide text beside a SMILES is read from it. Gla′ = gamma-carboxyglutamate (g in names)
What was measured:
[1] = system: NMDA receptor; type: binding, rat
[2] = biological target: T1, NMDA receptor (Rattus norvegicus, UniProt P35439+Q00960); assay: biochemical; type: binding
T1 construct: other: test compound in the absence of spermine; concentration at 50% of maximum stimulation; % Sti; spermine = 100; other: with and without spermine; absence of spermine; % STI; absence

[3] = read-out: IC50, inhibition of spermine-enhanced [3H]MK-801 binding

T1 sequence (Q00960 27-1482, other chains not shown): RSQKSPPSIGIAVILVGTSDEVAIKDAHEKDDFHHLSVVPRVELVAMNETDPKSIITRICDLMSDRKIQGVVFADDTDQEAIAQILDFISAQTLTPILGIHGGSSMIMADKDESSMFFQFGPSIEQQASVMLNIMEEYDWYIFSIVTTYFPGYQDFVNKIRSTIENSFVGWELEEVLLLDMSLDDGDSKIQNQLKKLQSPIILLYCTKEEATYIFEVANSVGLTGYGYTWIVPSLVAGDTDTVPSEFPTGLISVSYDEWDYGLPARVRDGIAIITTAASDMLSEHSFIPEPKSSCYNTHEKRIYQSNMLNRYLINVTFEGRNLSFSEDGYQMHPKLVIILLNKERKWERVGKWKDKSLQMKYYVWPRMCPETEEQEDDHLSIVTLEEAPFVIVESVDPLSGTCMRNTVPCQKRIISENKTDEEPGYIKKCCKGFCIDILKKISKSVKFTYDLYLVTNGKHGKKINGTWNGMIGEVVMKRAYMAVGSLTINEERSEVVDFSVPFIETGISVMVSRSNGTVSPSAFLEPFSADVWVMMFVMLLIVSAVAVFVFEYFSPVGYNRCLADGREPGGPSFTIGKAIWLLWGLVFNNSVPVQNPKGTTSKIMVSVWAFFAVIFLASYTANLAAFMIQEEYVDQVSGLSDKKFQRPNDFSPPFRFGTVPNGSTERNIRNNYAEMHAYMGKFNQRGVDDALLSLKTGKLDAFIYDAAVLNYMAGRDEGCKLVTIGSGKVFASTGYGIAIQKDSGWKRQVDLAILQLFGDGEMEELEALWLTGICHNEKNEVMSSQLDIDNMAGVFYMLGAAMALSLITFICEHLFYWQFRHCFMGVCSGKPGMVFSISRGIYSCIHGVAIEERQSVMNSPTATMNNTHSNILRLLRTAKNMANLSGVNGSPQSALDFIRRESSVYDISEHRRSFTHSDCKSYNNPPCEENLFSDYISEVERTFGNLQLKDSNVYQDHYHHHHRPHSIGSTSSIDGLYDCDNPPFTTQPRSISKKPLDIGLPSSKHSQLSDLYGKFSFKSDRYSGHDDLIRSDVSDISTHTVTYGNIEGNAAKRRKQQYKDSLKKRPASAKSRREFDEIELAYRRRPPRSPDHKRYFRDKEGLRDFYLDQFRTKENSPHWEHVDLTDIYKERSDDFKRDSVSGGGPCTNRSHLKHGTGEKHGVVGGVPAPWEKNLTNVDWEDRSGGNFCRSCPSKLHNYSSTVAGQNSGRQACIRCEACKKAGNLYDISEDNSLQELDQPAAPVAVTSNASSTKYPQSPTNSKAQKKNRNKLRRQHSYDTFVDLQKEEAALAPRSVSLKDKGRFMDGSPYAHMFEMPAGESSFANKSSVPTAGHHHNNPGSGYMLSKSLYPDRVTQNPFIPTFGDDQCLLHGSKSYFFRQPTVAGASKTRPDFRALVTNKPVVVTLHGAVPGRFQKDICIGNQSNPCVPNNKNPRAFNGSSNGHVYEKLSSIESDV

CC[C@H](C)[C@H](NC(=O)[C@H](CCC(N)=O)NC(=O)[C@H](CO)NC(=O)[C@@H](NC(=O)[C@H](CC(N)=O)NC(=O)[C@H](CO)NC(=O)[C@H](CCC(N)=O)NC(=O)[C@H](CC(C)C)NC(=O)[C@H](CC(C(=O)O)C(=O)O)NC(=O)[C@H](CC(C(=O)O)C(=O)O)NC(=O)[C@H](CCC(=O)O)NC(=O)CN)C(C)C)C(=O)N[C@@H](CCCNC(=N)N)C(=O)N[C@@H](C)C(=O)N[C@@H](CCCCN)C(=O)N[C@@H](CO)C(=O)N[C@@H](CC(N)=O)C(N)=O [310 helix ConG] (HELM PEPTIDE1{G.E.[O=C(O)C(C[C@H](N[*:1])C(=O)[*:2])C(=O)O].[O=C(O)C(C[C@H](N[*:1])C(=O)[*:2])C(=O)O].L.Q.S.N.V.S.Q.I.R.A.K.S.N.[am]}$$$$V2.0)
% Inh [1]: 25%
IC50 ([1]; read-out: Spermine IC): 20000 nM
Emax ([2]; read-out: % Sti): 0%

CC[C@H](C)[C@H](NC(=O)[C@H](CC(C)C)NC(=O)[C@H](C)NC(=O)[C@H](CCC(N)=O)NC(=O)[C@H](CC(N)=O)NC(=O)[C@H](CC(C(=O)O)C(=O)O)NC(=O)[C@H](CCC(N)=O)NC(=O)[C@H](CC(C)C)NC(=O)[C@H](CC(C(=O)O)C(=O)O)NC(=O)[C@H](CC(C(=O)O)C(=O)O)NC(=O)[C@H](CCC(=O)O)NC(=O)CN)C(=O)N[C@@H](CCCNC(=N)N)C(=O)N[C@@H](CC(C(=O)O)C(=O)O)C(=O)N[C@@H](CCCCN)C(=O)N[C@@H](CO)C(=O)N[C@@H](CC(N)=O)C(N)=O [Ala10-Con-G, GEggLQgNQALIRgKSN]
% Inh [1]: 100%
IC50 ([1]; read-out: Spermine IC): 1100 ± 300 nM
Emax ([2]; read-out: % Sti): 0%

CC[C@H](C)[C@H](NC(=O)[C@H](CC(C)C)NC(=O)[C@H](CC(C(=O)O)C(=O)O)NC(=O)[C@H](CCC(N)=O)NC(=O)[C@H](CC(N)=O)NC(=O)[C@H](CC(C(=O)O)C(=O)O)NC(=O)[C@H](CCC(N)=O)NC(=O)[C@H](CC(C)C)NC(=O)[C@H](CC(C(=O)O)C(=O)O)NC(=O)[C@H](CC(C(=O)O)C(=O)O)NC(=O)[C@H](CCC(=O)O)NC(=O)CNC(=O)[C@@H](N)CC(=O)N[C@@H]1O[C@H](CO)[C@@H](O)[C@H](O)[C@H]1NC(C)=O)C(=O)N[C@@H](CCCNC(=N)N)C(=O)N[C@@H](CC(C(=O)O)C(=O)O)C(=O)N[C@@H](CCCCN)C(=O)N[C@@H](CO)C(=O)N[C@@H](CC(N)=O)C(N)=O [Asn(GlcNAc)^o-Con-G, N(GlcOc)-GEggLQgNQgLIRgKSN]
% Inh [1]: 38%
IC50 ([1]; read-out: Spermine IC): 8800 nM
% Sti ([2]; forebrain membranes): 0%

CC[C@H](C)[C@H](NC(=O)[C@H](CC(C)C)NC(=O)[C@@H](CCC(=O)O)NC(=O)[C@H](CCC(N)=O)NC(=O)[C@H](CC(N)=O)NC(=O)[C@@H](CCC(=O)O)NC(=O)[C@H](CCC(N)=O)NC(=O)[C@H](CC(C)C)NC(=O)[C@@H](CCC(=O)O)NC(=O)[C@@H](CCC(=O)O)NC(=O)[C@@H](CCC(=O)O)NC(=O)CN)C(=O)N[C@@H](CCCNC(=N)N)C(=O)N[C@H](CCC(=O)O)C(=O)N[C@@H](CCCCN)C(=O)N[C@@H](CO)C(=O)N[C@@H](CC(N)=O)C(N)=O [D-Glu3,4,7,10,14-Con-G, GdEdEdELQdENQdELIRdEKSN]
% Inh [1]: 0%
inhibition of spermine-induced [3H]MK-801 binding [1]: no inhibition
stimulation of [3H]MK-801 binding in the absence of spermine [2]: stimulated
Emax ([2]; read-out: % Sti): 30%

CC[C@H](C)[C@H](NC(=O)[C@H](CC(C)C)NC(=O)[C@H](CCC(=O)O)NC(=O)[C@H](CCC(N)=O)NC(=O)[C@H](CC(N)=O)NC(=O)[C@H](CCC(=O)O)NC(=O)[C@H](CCC(N)=O)NC(=O)[C@H](CC(C)C)NC(=O)[C@H](CCC(=O)O)NC(=O)[C@H](CCC(=O)O)NC(=O)[C@H](CCC(=O)O)NC(=O)CN)C(=O)N[C@@H](CCCNC(=N)N)C(=O)N[C@@H](CCC(=O)O)C(=O)N[C@@H](CCCCN)C(=O)N[C@@H](CO)C(=O)N[C@@H](CC(N)=O)C(N)=O [Glu3,4,7,10,14-Con-G]
% INH [1]: 22%
% Inh [1]: 22%
IC50 ([1]; read-out: IC50): 8500 nM
IC50 ([1]; read-out: Spermine IC): 8500 nM
Emax ([2]; read-out: % STI): 79%
Emax ([2]; read-out: % Sti): 79%

CC[C@H](C)[C@H](N)C(=O)N[C@@H](CCCNC(=N)N)C(=O)N[C@@H](CCC(=O)O)C(=O)N[C@@H](CCCCN)C(=O)N[C@@H](CO)C(=O)N[C@@H](CC(N)=O)C(N)=O [Glul4-Con-G(12-17), IREKSN]
% Inh [1]: 0%
inhibition of spermine-induced [3H]MK-801 binding [1]: no inhibition
stimulation of [3H]MK-801 binding in the absence of spermine [2]: stimulated
Emax ([2]; read-out: % Sti): 30%

CC[C@H](C)[C@H](NC(=O)[C@H](CC(C)C)NC(=O)[C@H](CO)NC(=O)[C@H](CCC(N)=O)NC(=O)[C@H](CC(N)=O)NC(=O)[C@H](CC(C(=O)O)C(=O)O)NC(=O)[C@H](CCC(N)=O)NC(=O)[C@H](CC(C)C)NC(=O)[C@H](CC(C(=O)O)C(=O)O)NC(=O)[C@H](CC(C(=O)O)C(=O)O)NC(=O)[C@H](CCC(=O)O)NC(=O)CN)C(=O)N[C@@H](CCCNC(=N)N)C(=O)N[C@@H](CC(C(=O)O)C(=O)O)C(=O)N[C@@H](CCCCN)C(=O)N[C@@H](CO)C(=O)N[C@@H](CC(N)=O)C(N)=O [Ser10-Con-G, GEggLQgNQSLIRgKSN]
% Inh [1]: 100%
IC50 ([1]; read-out: Spermine IC): 1800 ± 200 nM
Emax ([2]; read-out: % Sti): 0%

CC[C@H](C)[C@H](NC(=O)[C@H](CC(C)C)NC(=O)[C@H](CC(C(=O)O)C(=O)O)NC(=O)[C@H](CCC(N)=O)NC(=O)[C@H](CC(N)=O)NC(=O)[C@H](CC(C(=O)O)C(=O)O)NC(=O)[C@H](CCC(N)=O)NC(=O)[C@H](CC(C)C)NC(=O)[C@H](CC(C(=O)O)C(=O)O)NC(=O)[C@H](COP(=O)(O)O)NC(=O)[C@H](CCC(=O)O)NC(=O)CN)C(=O)N[C@@H](CCCNC(=N)N)C(=O)N[C@@H](CC(C(=O)O)C(=O)O)C(=O)N[C@@H](CCCCN)C(=O)N[C@@H](CO)C(=O)N[C@@H](CC(N)=O)C(N)=O [Ser(p)3-Con-G, GES(p)gLQgNQgLJRgKSN]
% INH [1]: 34 ± 2.3%
% Inh [1]: 34 ± 2.3%
% STI ([2]; forebrain membranes): 68 ± 8.4%
% Sti ([2]; forebrain membranes): 68 ± 8.4%

CC[C@H](C)[C@H](NC(=O)[C@H](CC(C)C)NC(=O)[C@H](CC(C(=O)O)C(=O)O)NC(=O)[C@H](CCC(N)=O)NC(=O)[C@H](CC(N)=O)NC(=O)[C@H](COP(=O)(O)O)NC(=O)[C@H](CCC(N)=O)NC(=O)[C@H](CC(C)C)NC(=O)[C@H](CC(C(=O)O)C(=O)O)NC(=O)[C@H](CC(C(=O)O)C(=O)O)NC(=O)[C@H](CCC(=O)O)NC(=O)CN)C(=O)N[C@@H](CCCNC(=N)N)C(=O)N[C@@H](CC(C(=O)O)C(=O)O)C(=O)N[C@@H](CCCCN)C(=O)N[C@@H](CO)C(=O)N[C@@H](CC(N)=O)C(N)=O [Ser(p)7-Con-G, GEggLQS(p)NQgLIRgKSN]
% Inh [1]: 50±3.8%
inhibition of [3H]MK-801 binding produced by maximally effective spermine [1]: 50%
IC50 [1, 3]: 1040 ± 300 nM
% Sti ([2]; forebrain membranes): 0%

CC[C@H](C)[C@H](NC(=O)[C@H](CC(C)C)NC(=O)[C@H](COP(=O)(O)O)NC(=O)[C@H](CCC(N)=O)NC(=O)[C@H](CC(N)=O)NC(=O)[C@H](CC(C(=O)O)C(=O)O)NC(=O)[C@H](CCC(N)=O)NC(=O)[C@H](CC(C)C)NC(=O)[C@H](CC(C(=O)O)C(=O)O)NC(=O)[C@H](CC(C(=O)O)C(=O)O)NC(=O)[C@H](CCC(=O)O)NC(=O)CN)C(=O)N[C@@H](CCCNC(=N)N)C(=O)N[C@@H](CC(C(=O)O)C(=O)O)C(=O)N[C@@H](CCCCN)C(=O)N[C@@H](CO)C(=O)N[C@@H](CC(N)=O)C(N)=O [Ser(p)10-Con-G, GEggLQgNQS(p)LIRgKSN]
% Inh [1]: 100%
IC50 [1, 3]: 560 ± 200 nM
% Sti ([2]; forebrain membranes): 0%

CC[C@H](C)[C@H](NC(=O)[C@H](CC(C)C)NC(=O)[C@H](CC(C(=O)O)C(=O)O)NC(=O)[C@H](CCC(N)=O)NC(=O)[C@H](CC(N)=O)NC(=O)[C@H](CC(C(=O)O)C(=O)O)NC(=O)[C@H](CCC(N)=O)NC(=O)[C@H](CC(C)C)NC(=O)[C@H](CC(C(=O)O)C(=O)O)NC(=O)[C@H](CC(C(=O)O)C(=O)O)NC(=O)[C@H](CCC(=O)O)NC(=O)CN)C(=O)N[C@@H](CCCNC(=N)N)C(=O)N[C@@H](COP(=O)(O)O)C(=O)N[C@@H](CCCCN)C(=O)N[C@@H](CO)C(=O)N[C@@H](CC(N)=O)C(N)=O [Ser(p)14-Con-G, GEggLQgNQgLIRS(p)KSN]
% Inh [1]: 31 ± 0.5%
inhibition of [3H]MK-801 binding produced by maximally effective spermine [1]: 31%
IC50 [1, 3]: 1120 ± 50 nM
% Sti ([2]; forebrain membranes): 0%

NCCCCNCCCN [Spermidine, reference compound]
% Inh [1]: 0%
Emax ([2]; read-out: % Sti): 97%

NCCCNCCCCNCCCN [Spermine, reference compound]
% Inh [1]: 0%
% Sti ([2]; forebrain membranes): 100%

GEggL-AA-gKSN (GEXXLAAXKSN; gamma-carboxyglutamate residues) [ConG(1-5)AA(14-17)]
% Sti [2]: 0%

GEggL-AAA-gKSN (GEXXLAAAXKSN; gamma-carboxyglutamate residues) [ConG(1-5)AAAA(14-17)]
% Sti [2]: 0%

GEggL-BB-gKSN [ConG(1-5)BB(14-17)]
% Sti [2]: 0%

GEggL-GG-gKSN (GEXXLGGXKSN; gamma-carboxyglutamate residues) [ConG(1-5)GG(14-17)]
% Sti [2]: 0%

GEggL-GGGG-gKSN (GEXXLGGGGXKSN; gamma-carboxyglutamate residues) [ConG(1-5)GGGG(14-17)]
% Sti [2]: 0%

GEggL-cyclic (GEXXL; cyclic; gamma-carboxyglutamate residues) [Cyclic ConG(1-5)]
activity in [3H]MK-801 binding (spanning cell of Table II) [2]: inactive

GEggLQ-AAAAA-gKSN (GE[Gla′][Gla′]LQAAAAA[Gla′]KSN) [ConG(1-6)AS(14-17)]
% Sti [2]: 0%

GEggLQ-AAAAAAA-gKSN (GE[Gla′][Gla′]LQAAAAAAA[Gla′]KSN) [ConG(1-6)A7(14-17)]
% Sti [2]: 0%

IAEASN [Ala13,15, Glul4-Con-G(12-17)]
activity in [3H]MK-801 binding (spanning cell of Table II) [2]: inactive

IAEKSN [Ala13, Glul4-Con-G(12-17)]
activity in [3H]MK-801 binding (spanning cell of Table II) [2]: inactive

IREASN [Glu 14, Alal5-Con-G(12-17)]
activity in [3H]MK-801 binding (spanning cell of Table II) [2]: inactive

RSgNK (RS[Gla′]NK) [scrambled Con-G]
activity in [3H]MK-801 binding (spanning cell of Table II) [2]: inactive

RgKSN (R[Gla′]KSN) [Con-G(13-17)]
activity in [3H]MK-801 binding (spanning cell of Table II) [2]: inactive

— patent US6511963B1 (priority 1992, dated 2003)
